Source: PMC11154920 (ACS Omega, 2024)

Legend:
CYP3A4 = details: in vitro; cited from earlier work
[1] = Stability of DEM and DEX in rat plasma; format: physicochemical
[2] = cited from earlier work
[3] = tested on: Cytochrome P450 2D6 (CYP2D6); details: cited from earlier work
[4] = tested on: cytochrome P450 3A4 (CYP3A4); details: cited from earlier work
[5] = autosampler stability (64 h and 3 min), HQC
[6] = autosampler stability (64 h and 3 min), LQC
[7] = benchtop stability (19 h and 28 min), HQC, rat plasma
[8] = benchtop stability (19 h and 28 min), LQC, rat plasma
[9] = freeze thaw stability (five cycles), HQC
[10] = freeze thaw stability (five cycles), HQC: nominal DEM 302.52, DEX 156.76 ng/mL
[11] = freeze thaw stability (five cycles), LQC
[12] = freeze thaw stability (five cycles), LQC: nominal DEM 0.58, DEX 0.30 ng/mL
[13] = long-term stability (49 days), HQC
[14] = long-term stability (49 days), LQC
[15] = long-term stability (49 days), −70 °C, HQC: nominal DEM 302.52, DEX 156.76 ng/mL
[16] = long-term stability (49 days), −70 °C, LQC: nominal DEM 0.58, DEX 0.30 ng/mL
[17] = processed sample stability (28 h and 21 min), HQC
[18] = processed sample stability (28 h and 21 min), LQC
[19] = wet extract stability (42 h and 12 min), HQC
[20] = wet extract stability (42 h and 12 min), LQC
[21] = wet extract stability (42 h and 12 min), LQC: nominal DEM 0.58, DEX 0.30 ng/mL

SMILES	% difference [1, 5]	% difference [1, 6]	% difference [1, 7]	% difference [1, 8] [%]	% difference [1, 9]	calculated conc. [1, 10] [ng/mL]	% difference [1, 11] [%]	calculated conc. [1, 12] [ng/mL]	% difference [1, 13]	% difference [1, 14] [%]	calculated conc. [1, 15] [ng/mL]	calculated conc. [1, 16] [ng/mL]	% difference [1, 17]	% difference [1, 18]	% difference [1, 19]	% difference [1, 20] [%]	calculated conc. [1, 21] [ng/mL]	other results
COc1cc2c(cc1O)CC[n+]1cc3c(OC)c(OC)ccc3cc1-2 [M38, jatrorrhizine]																		inhibition of CYP3A4 (CYP3A4): reported to inhibit CYP3A4
CN1CC[C@@]23CCCC[C@@H]2[C@@H]1Cc1ccc(O)cc13 [DEX, dextrorphan]	–3.41%	–3.45%	–0.70%	0.00	0.66%	156.02 ± 1.22	3.45	0.30 ± 0.02	0.32%	3.45	155.49 ± 7.51	0.30 ± 0.02	–1.99%	3.45%	–0.69%	6.90	0.31 ± 0.02	fraction rapidly glucuronidated [2]: 98%
COc1ccc2c(c1)[C@]13CCCC[C@@H]1[C@H](C2)N(C)CC3 [DEM, Dextromethorphan]	2.32%	3.51%	–0.36%	5.29	–2.53%	293.62 ± 16.24	1.72	0.57 ± 0.03	–0.54%	3.51	299.62 ± 9.41	0.58 ± 0.03	2.35%	–0.06%	–0.83%	8.86	0.61 ± 0.05	share of metabolism of DEM to DEX by CYP2D6 [3]: 80%; share of metabolism of DEM to 3-methoxymorphinan by CYP3A4 [4]: 90%
